Series [1] addresses T1, rat cloned 5-HT7 receptor (Rattus norvegicus, UniProt P32305).
T1 construct: purchased PerkinElmer-NEN; host or cells: HEK-293
The series is described as follows: Radioligand binding assay ([3H]-LSD) at rat cloned 5-HT7Rs. Conditions: for Ki: [3H]-LSD, rat recombinant 5-HT7R expressed in HEK-293 cells. The procedure: Rat recombinant serotonin 5-HT7R expressed in HEK-293 cells were purchased from PerkinElmer-NEN (Betsville, Md., USA).
Radioligand Binding Assay at Rat Cloned 5-HT7Rs. Binding of [^3H]-LSD at rat cloned 5-HT7 receptor was performed according to a known method. In 1 mL of incubation buffer (50 mM Tris, 10 mM MgCl2 and 0.5 mM EDTA, pH 7.4) were suspended 30 μg of membranes, 2.5 nM [^3H]-LSD, the drugs or reference compound (six to nine concentrations). The samples were incubated for 60 min at 37° C. The incubation was stopped by rapid filtration on GF/A glass fiber filters (pre-soaked in 0.5% polyethylenimine for 30 min). The filters were washed with 3 ? 3 mL of ice-cold buffer (50 mM Tris, pH 7.4). Nonspecific binding was determined in the presence of 10 μM 5-CT. Approximately 90% of specific binding was determined under these conditions.

In a further series the target is T2, 5-HT1A receptors (Rattus norvegicus, UniProt P19327).
T2 sequence (P19327 1-422): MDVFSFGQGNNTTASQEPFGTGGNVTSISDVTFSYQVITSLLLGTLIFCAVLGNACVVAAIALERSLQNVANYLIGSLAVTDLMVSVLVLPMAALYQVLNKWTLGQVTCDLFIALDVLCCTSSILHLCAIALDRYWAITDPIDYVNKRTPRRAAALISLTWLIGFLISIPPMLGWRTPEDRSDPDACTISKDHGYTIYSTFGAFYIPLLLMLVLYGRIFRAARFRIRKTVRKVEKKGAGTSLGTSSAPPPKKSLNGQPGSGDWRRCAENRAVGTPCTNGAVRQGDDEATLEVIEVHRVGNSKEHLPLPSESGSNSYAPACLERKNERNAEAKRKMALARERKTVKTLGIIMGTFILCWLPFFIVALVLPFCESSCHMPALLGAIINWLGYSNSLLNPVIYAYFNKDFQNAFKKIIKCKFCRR
Conditions: for Ki: read-out: Ki, nM 5-HT1A, [3H]-8-OH-DPAT, rat hippocampal membranes.

In series [2] the target is T3, 5-HT2A receptors (Rattus norvegicus, UniProt P14842).
Experimental: (§1) Radioligand Binding Assay at Rat Cortex Membranes 5-HT2A Receptors. […] Rats were killed by decapitation, the brain was quickly removed, and the cortex was dissected. […] The homogenate was centrifuged at 2000 g for 10 min at 4° C. The supernatant was saved, and the pellet was resuspended in 25 mL of buffer. The surnatantes were collected and diluted 1:10 w/w with 10 mM Tris pH 7.4. The homogenate was centrifugated at 35000 g for 15 min at 4° C. The supernatant was discarded, and the final pellet was stored at −80° C. until used. […] For competitive inhibition experiments various concentrations of drugs studied were incubated. […] Samples were incubated at 37° C. for 15 min and then filtered on Whatman GF/B glass microfiber filters.
(§2) Statistical Analysis. […] PRISM® program. The value for the inhibition constant, Ki, was calculated by using the Cheng-Prusoff equation.
The subject of a further series is hamsters. The series is described as follows: Circadian phase shift in hamsters after injection. In kind it is in vivo. The source says: This provides evidence that no additional receptor subtype, such as the 5-HT1A receptor or the 5-HT5A receptor, is necessary for this effect.
In the next series the target is 5-HT7 receptor (Cavia porcellus, UniProt P50407). Briefly: Isolated guinea-pig ileum assay: relaxation of substance P-induced contraction.
Series [3] addresses T3, 5-HT2A receptors. Briefly: Radioligand binding assay ([3H]-ketanserin) at rat cortex membranes 5-HT2A receptors.
Experimental: as §1, §2
For series [4], the system named is isolated guinea-pig ileum. The series is described as follows: Substance P contraction of isolated guinea-pig ileum (concentration-response). Conditions: 100 nM. The source says: Isolated Guinea-Pig Ileum Assay.

Where a name gives a salt, the structure may show the parent alone. No end group written: not given here.

T3 sequence (P14842 whole entry): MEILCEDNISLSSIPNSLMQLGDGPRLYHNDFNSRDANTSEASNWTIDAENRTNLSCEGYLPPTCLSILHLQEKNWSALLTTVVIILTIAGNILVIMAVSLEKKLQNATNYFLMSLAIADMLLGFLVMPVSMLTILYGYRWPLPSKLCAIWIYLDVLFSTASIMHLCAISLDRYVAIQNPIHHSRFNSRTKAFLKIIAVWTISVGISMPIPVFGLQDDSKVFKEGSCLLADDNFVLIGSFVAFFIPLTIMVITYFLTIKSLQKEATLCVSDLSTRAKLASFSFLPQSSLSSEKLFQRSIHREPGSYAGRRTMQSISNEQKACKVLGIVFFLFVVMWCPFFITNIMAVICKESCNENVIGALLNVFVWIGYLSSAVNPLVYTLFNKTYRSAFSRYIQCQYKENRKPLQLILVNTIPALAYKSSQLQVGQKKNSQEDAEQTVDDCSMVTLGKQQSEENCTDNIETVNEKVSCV
T1 sequence (P32305 whole entry): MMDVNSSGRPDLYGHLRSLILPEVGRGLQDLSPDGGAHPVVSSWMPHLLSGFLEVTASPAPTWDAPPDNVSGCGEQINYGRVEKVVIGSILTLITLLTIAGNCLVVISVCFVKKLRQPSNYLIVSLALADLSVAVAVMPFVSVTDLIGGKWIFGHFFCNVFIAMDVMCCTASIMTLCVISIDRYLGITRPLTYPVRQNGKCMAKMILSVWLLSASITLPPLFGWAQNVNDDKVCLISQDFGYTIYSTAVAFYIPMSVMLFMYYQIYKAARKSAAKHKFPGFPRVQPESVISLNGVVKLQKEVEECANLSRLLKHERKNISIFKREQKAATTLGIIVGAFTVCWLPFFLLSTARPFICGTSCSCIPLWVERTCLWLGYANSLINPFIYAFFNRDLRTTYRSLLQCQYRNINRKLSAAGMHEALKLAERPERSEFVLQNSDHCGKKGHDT
Chain of 5-HT7 receptor (P50407 whole entry): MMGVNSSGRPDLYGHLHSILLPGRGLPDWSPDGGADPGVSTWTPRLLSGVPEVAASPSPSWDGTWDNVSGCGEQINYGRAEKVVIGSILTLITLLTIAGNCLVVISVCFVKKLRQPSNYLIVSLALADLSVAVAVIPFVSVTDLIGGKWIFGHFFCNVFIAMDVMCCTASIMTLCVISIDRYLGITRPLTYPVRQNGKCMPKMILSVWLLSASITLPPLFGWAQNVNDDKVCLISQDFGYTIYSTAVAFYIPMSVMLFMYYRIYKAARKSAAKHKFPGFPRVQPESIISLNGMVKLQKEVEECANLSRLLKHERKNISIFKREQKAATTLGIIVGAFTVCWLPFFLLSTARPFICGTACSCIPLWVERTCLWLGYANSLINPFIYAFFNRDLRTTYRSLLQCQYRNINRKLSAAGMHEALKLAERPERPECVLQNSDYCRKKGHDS
Experimental for 5-HT1A receptors: Radioligand Binding Assay at Rat Hippocampal Membranes 5-HT1A Receptors. Binding experiments were performed according to a known method. Rats were killed by decapitation, the brain was quickly removed, and the hippocampus was dissected. […] The homogenate was centrifuged at 48000 g for 15 min at 4° C. The supernatant was discarded, and the pellet was resuspended in 25 mL of buffer, then preincubated for 10 min at 37° C. The homogenate was centrifuged at 48000 g for 15 min at 4° C. The supernatant was discarded, and the final pellet was stored at −80° C. until used. […] For competitive inhibition experiments various concentrations of drugs studied were incubated. […] Samples were incubated at 37° C. for 20 min and then filtered on Whatman GF/B glass microfiber filters.
Statistical Analysis. […] The value for the inhibition constant, Ki, was calculated by using the Cheng-Prusoff equation.

One may read the melting point as the temperature of the solid-liquid transition. Molecule `COc1ccc(OC)c(N2CCN(CCCCCC(=O)NC3CCCc4ccccc43)CC2)c1` (centres unmarked) (as salt: HCl) (hydrate or solvate) [Compound 36] had a melting point of 124 to 126 °C.
As to `CS(=O)(=O)c1ccccc1N1CCN(CCCCCC(=O)NC2CCCc3ccccc32)CC1` (centres unmarked) (as salt: HCl) (hydrate or solvate) [Compound 45], the melting point fell in the range of 120 to 122 °C.
Same read-out and setting: to `CC(=O)c1ccccc1N1CCN(CCCCCC(=O)NC2CCCc3ccccc32)CC1` (centres unmarked) (as salt: HCl) (hydrate or solvate) [Compound 34, 4-(2-Acetylphenyl)-N-(1,2,3,4-tetrahydronaphthalen-1-yl)-1-piperazinehexanamide] belongs 136 to 139 °C.
In the case of `COc1ccc2c(c1)C(NC(=O)CCCCN1CCN(c3ccccc3OC)CC1)CCC2` (centres unmarked) (as salt: HCl) (hydrate or solvate) [Compound 21], the melting point was in the range of 187 to 188 °C.
The term Ki denotes a measure of affinity in units of concentration, obtained from inhibition or displacement. With `CS(=O)(=O)c1ccccc1N1CCN(CCCCCC(=O)NC2CCCc3ccccc32)CC1` (centres unmarked) [Compound 45], the Ki in series [1] was found to be 298 ± 16 nM; on 5-HT1A receptors, 3120 ± 260 nM. The “5-HT2A, percentage in parentheses after >4000” value on 5-HT2A receptors [2] amounted to 38%.
Take `CC1CCN(CC[C@H]2CCCN2S(=O)(=O)c2cccc(O)c2)CC1` [SB-26770-A, reference compound]: in the series on hamsters (microinjection into the dorsal raphe before compound 44, relative to vehicle pretreatment), the “effect on phase shifts caused by compound 44” value was “significantly block phase shifts”.
Molecule `N#Cc1ccccc1N1CCN(CCCCCC(=O)NC2CCCc3ccccc32)CC1` (centres unmarked) (as salt: HCl) (hydrate or solvate) [Compound 33] came in with a melting point of 175 to 178 °C.
Usually EC50 stands for the concentration at which the effect is half-maximal. As for `CSc1ccccc1N1CCN(CCCCCC(=O)NC2CCCc3ccccc32)CC1` (centres unmarked) [Compound 44, 4-(2-Methylthiophenyl)-N-(1,2,3,4-tetrahydronaphthalen-1-yl)-1-piperazinehexanamide], in series [1], the “5-HT7R affinity (in words)” value is “high affinity”. For the same molecule, the Ki was 0.22 nM in series [1]; 52.7 ± 3.2 nM on 5-HT1A receptors; 326 ± 35 nM on 5-HT2A receptors [3] (read-out: Ki, nM 5-HT2A, [3H]-ketanserin, rat cortex membranes). Moreover, the circadian phase shift result in the series on hamsters (microinjection into the dorsal raphe) was “cause phase shift advances”. Besides, the “selectivity over 5-HT1A receptors” value on 5-HT1A receptors (5-HT7R versus 5-HT1A) amounted to 200 fold. In addition, the EC50 on 5-HT7 receptor came to 2560 nM. The “PA2 (vs SB-269970)” value on 5-HT7 receptor (in the presence of antagonist SB-269970 (0.1 μM-3 μM)) came to 7.70 ± 0.80. Besides, on 5-HT7 receptor (isolated guinea-pig ileum), the “5-HT7 intrinsic activity (in words)” value is recorded as “Full agonists”. Moreover, the Emax at 5-HT7 receptor (read-out: Maximal Effect %) is 100%. Besides, the Schild plot at 5-HT7 receptor (vs SB-269970, p value in parentheses) is given as 0.9 (p < 0.0001). In addition, on 5-HT2A receptors [3] (5-HT7R versus 5-HT2A), the “selectivity over 5-HT2A receptors” value is on record as over 1000 fold.
`COc1ccccc1N1CCN(CCCC(=O)NC2CCCc3cccc(OC)c32)CC1` (centres unmarked) (as salt: HCl) [Compound 23, N-(8-Methoxy-1,2,3,4-tetrahydronaphthalen-1-yl)4-(2-methoxyphenyl)-1-piperazinebutanamide] yielded a melting point of 131 to 133 °C.
Take `NC(=O)c1ccccc1N1CCN(CCCCCC(=O)NC2CCCc3ccccc32)CC1` (centres unmarked) [Compound 43]: the Ki is 229 ± 12 nM in series [1] and 494 ± 35 nM at 5-HT1A receptors. Further, the “5-HT2A, percentage in parentheses after >4000” value on 5-HT2A receptors [2] is 9%.
`COc1ccc2c(c1)C(NC(=O)CCCCCN1CCN(c3ccccc3OC)CC1)CCC2` (centres unmarked) (as salt: HCl) [Compound 22]: the melting point was in the range of 175 to 178 °C.
As for `COc1ccccc1N1CCN(CCCCC(=O)NC2CCCc3ccccc32)CC1` (centres unmarked) (as salt: HCl) (hydrate or solvate) [Compound 27, 4-(2-Methoxyphenyl)-N-(1,2,3,4-tetrahydronaphthalen-1-yl)-1-piperazinepentanamide], the melting point was in the range of 199 to 200 °C.
As for “substance P: contracting agent of the guinea-pig ileum assay, purchased from Tocris Cookson (RPKPQQFFGLM; ends and bridges not checked; UniProt P20366 58-68, looked up)”, the “contraction, % of maximum contraction” value in series [4] came out at 80%.
In turn, `CC(=O)c1ccc(N2CCN(CCCCCC(=O)NC3CCCc4ccccc43)CC2)cc1` (centres unmarked) (as salt: HCl) [Compound 42] registered a melting point of 112 to 114 °C.

Values taken from patent US7488730B2, “N-(1,2,3,4-tetrahydronaphthalen-1-yl)-4-phenyl-1-piperazinealkylamide derivatives, and therapeutic use thereof as 5-HT7 receptor ligands” (Universita Degli Studi Di Bari, priority 2005, dated 2009).
